In the supplement of paper PMC10307832:

How the values were obtained:
Assay in all cases: relative viability (nuclei count vs DMSO), 5 days (fraction); higher = more cells survive
[1] = compound: C=CCn1c(=O)c2cnc(Nc3ccc(N4CCN(C)CC4)cc3)nc2n1-c1cccc(C(C)(C)O)n1 [Adavosertib] + Cc1cc(Nc2cc(N3CCN(C)CC3)nc(Sc3ccc(NC(=O)C4CC4)cc3)n2)n[nH]1 [Tozasertib] (partner 0.1 µM)
In short: (§1)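 Cells from lung cancer lines were seeded into 1536-well plates and, one day later, dosed by pin tool. Treatments were either a single drug or a fixed dose of an anchor drug with five library-drug doses (not always all listed) in √10 steps. After 5 days, nuclei were stained in a one-step fixation (final 0.05% Triton X-100, 1% formaldehyde, 1 ug/ml Hoechst) and counted on 4× images, and relative viability is the treated-to-vehicle nuclei ratio, as the median of duplicate plates.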

[2] = compound: COc1nc(N)nc2c1ncn2[C@@H]1O[C@H](CO)[C@@H](O)[C@@H]1O [Nelarabine] + C[C@]1(O)C[C@@H](c2nc(-c3ccc4ccc(-c5ccccc5)nc4c3)c3c(N)nccn32)C1 [Linsitinib] (partner 1 µM)
In short: as §1

[3] = compound: COc1nc(N)nc2c1ncn2[C@@H]1O[C@H](CO)[C@@H](O)[C@@H]1O [Nelarabine] + CC1(C)CCC(c2ccc(Cl)cc2)=C(CN2CCN(c3ccc(C(=O)NS(=O)(=O)c4ccc(N[C@H](CCN5CCOCC5)CSc5ccccc5)c(S(=O)(=O)C(F)(F)F)c4)cc3)CC2)C1 [Navitoclax] (partner 0.5 µM)
In short: as §1

[4] = compound: COc1nc(N)nc2c1ncn2[C@@H]1O[C@H](CO)[C@@H](O)[C@@H]1O [Nelarabine] + CC(=O)c1c(C)c2cnc(Nc3ccc(N4CCNCC4)cn3)nc2n(C2CCCC2)c1=O [Palbociclib] (partner 0.5 µM)
In short: as §1

Cell Line	relative viability ([1]; first compound 0.01 µM)	relative viability ([1]; first compound 0.03162 µM)	relative viability ([1]; first compound 0.1 µM)	relative viability ([1]; first compound 0.3162 µM)	relative viability ([2]; first compound 0.01 µM)	relative viability ([2]; first compound 0.03162 µM)	relative viability ([2]; first compound 0.1 µM)	relative viability ([2]; first compound 0.3162 µM)	relative viability ([2]; first compound 1 µM)	relative viability ([3]; first compound 0.01 µM)	relative viability ([3]; first compound 0.03162 µM)	relative viability ([3]; first compound 0.1 µM)	relative viability ([3]; first compound 0.3162 µM)	relative viability ([3]; first compound 1 µM)	relative viability ([4]; first compound 0.01 µM)	relative viability ([4]; first compound 0.03162 µM)	relative viability ([4]; first compound 0.1 µM)	relative viability ([4]; first compound 0.3162 µM)	relative viability ([4]; first compound 1 µM)
NCI-H838	0.237	0.268	0.328	0.283	1.29	0.907	1.06	1.11	1.13	1.48	1.13	1.22	1.26	1.25	0.267	0.244	0.226	0.242	0.253
NCI-H1734	0.257	0.24	0.252	0.266	0.954	0.855	0.932	0.931	0.939	1.06	0.787	0.962	0.869	0.833	0.387	0.305	0.334	0.368	0.326
HCC-44	1.02	0.951	1.24	1.15	0.712	0.678	0.678	0.657	0.691	1.27	1.09	0.985	1.05	0.966	0.985	0.955	0.978	0.984	0.944
HOP-62	0.356	0.409	0.414	0.329	0.933	0.967	1.11	0.872	0.801	1.25	1	1.06	1.08	1.11	0.567	0.49	0.496	0.419	0.485
NCI-H3122	0.414	0.383	0.462	0.469	1.04	0.77		0.97	1.04	1.04	0.668		1.04	1.05	0.194	0.145		0.201	0.207
NCI-H2405	0.807	0.83	0.835	0.877	0.98	0.853	0.898	0.966	0.872	1	0.902	0.687	0.744	0.84	0.495	0.48	0.516	0.529	0.51
UMC-11	0.19	0.201	0.196	0.181	1.34	0.768	0.949	0.987	0.896	0.291	0.277	0.307	0.306	0.313	0.361	0.269	0.318	0.332	0.351
COR-L 105	0.353	0.374	0.385	0.319	0.863	1.03	0.95	1.04	0.984	0.936	0.956	0.733	0.819	0.795	0.383	0.354	0.43	0.385	0.421
IA-LM					0.847	0.838	0.68	0.737	0.667	1	0.626	0.774	0.754	0.807					
NCI-H1792					0.621		0.548	0.702	0.716	0.518		0.931	0.685	0.396		0.58	0.904	0.78	0.922
NCI-H650	0.75	0.774	0.806	0.757	0.927	0.947	0.868	0.874	1						0.338	0.283	0.297	0.301	0.363
NCI-H1703					1.05	0.66	0.666	0.541	0.834	1.28	0.936	1.24	1.18	1.18					
Calu-6					1.22	1.07	0.897	0.997	1	1.17		0.892	0.851	0.909					
NCI-H1648	0.545	0.613	0.386	0.545												0.27		0.292	0.215
NCI-H1623	0.4	0.447	0.351	0.447															
NCI-H1563					1.23	1.22	1.18	1.19	1.18										
NCI-H522	0.522	0.58	0.508	0.581											1.16	1.07	0.957	0.947	1.02
LCLC-103H	0.5	0.501	0.572	0.451	1.22	1.11	1.08	1.02	1.11						0.523	0.421	0.466	0.486	0.504
NCI-H596	1.03	0.826	1.02	0.93	1.15	1.2	1.07	1.16	1.04	0.986	1.13	0.959	1.04	0.994					
NCI-H2170	0.675	0.683	0.688	0.735						0.564	0.627	0.65	0.678	0.552	0.438	0.337	0.385	0.395	0.405
NCI-H2342	0.548	0.507	0.55	0.525											0.557	0.463	0.529	0.521	0.554
A549					0.714	0.622	0.585	0.523	0.642	1.56	1.29	1.24	1.17	1.18					
NCI-H661	0.353	0.36	0.339	0.349	0.719	0.859	0.723	0.555	0.535						0.386	0.401	0.402	0.403	0.422
